Source: US20030083374A1, “NAALADase inhibitors useful as pharmaceutical compounds and compositions” (priority 1998, published 2003)

Columns and labels:
cortical cell cultures = test: in vitro assay of NAALADase inhibitors on ischemia in cortical cell cultures; type: cell-based; details: concentration required to cause a 50% reduction in glutamate toxicity following an ischemic insult (potassium cyanide and 2-deoxyglucose)
From the text: Some results are set forth in U.S. Pat. Nos. 5,672,592, 5,795,877, 5,863,536, 5,880,112 and 5,902,817, allowed U.S. patent application Ser. Nos. 08/825,997, 08/833,628, 08/842,360 and 08/899,319 for which the issue fees have been paid, the entire contents of which patents and applications are herein incorporated by reference. Other results are provided below in TABLE III.

[1] = tested on: STZ-induced diabetic rats; test: in vivo assay on neuropathic pain in STZ-diabetic rats (Hargreaves); design: species or system Male Sprague-Dawley rats; details: 10 mg/kg i.p. daily, started 45 days post-STZ
Description: (§1) Male Sprague-Dawley rats (200-225 g) were rendered diabetic by intravenous administration of streptozotocin (STZ, 70 mg/kg in phosphate buffered saline). Diabetic animals were divided into five groups: one group receiving Compound 2 (10 mg/kg or 1 mg/kg), Compound 1 (10 mg/kg or 1 mg/kg) or vehicle. Another group of animals (non-STZ treated) served as non-diabetic controls. Drug/vehicle treatment was started in diabetic animals 45 days post-STZ administration. STZ-induced diabetic rats were tested for sensitivity to a heat source as soon as blood glucose levels rose to 320 mg/dl or above (30 days post STZ). The rats were then acclimated to the Hargreaves apparatus and thermal nociception was monitored using an infrared heat source directed into the […] surface of the hindpaw, and the time taken for the animal to remove its paw noted to the nearest 0.1 seconds (see Hargreaves et al. 1998 for detailed method). The intensity of the beam source was adjusted such that the mean latency for control animals (non-STZ treated) was approximately 10 seconds. Each animal was tested 8 times and the mean difference score (between mean non-diabetic control latency and mean diabetic latency) are graphically presented in FIGS. 19A and 19B.

STZ-diabetic animals = test: motor and sensory nerve conduction velocity in STZ-diabetic animals; type: in vivo, rats; details: either dose (10 mg/kg or 1 mg/kg); significant after 12 weeks at 10 mg/kg, earlier at 1 mg/kg
Description: as §1
Motor and sensory nerve conduction velocity was also measured in STZ-diabetic animals after 4, 8 and 12 weeks of treatment (see De Koning and Gispen 1987 for detailed method). Briefly, stimulating needle electrodes were inserted close to the sciatic and tibial nerves with recording electrodes being placed subcutaneously over the distal foot muscles, in anesthetized rats.

**Q.** Which EC50 (cortical cell cultures) does the source give for `O=C(O)CCC(CCS)C(=O)O` (stereo not drawn) [Compound 1, 2-(2-sulfanylethyl)pentanedioic acid] here?
**A.** The EC50 was 2 nM.

**Q.** And the “hyperalgesic response in diabetic rats” value [1]?
**A.** Its value is “completely reversed”.

**Q.** And the “motor and sensory nerve conduction velocities vs. diabetic controls” value (STZ-diabetic animals)?
**A.** Its value is “increased”.
